Patent publication US20140363835A1, “COMPATIBLE SOLUTE ECTOINE AS WELL AS DERIVATIVES THEREOF FOR ENZYME STABILIZATION” (Roche Diagnostics Operations, Inc., priority 2012, published 2014)
“Also recorded” adds a separate entry of the source.

Key:
lactate dehydrogenase = settings: in solution; Andersson et al. (2000); cited from earlier work
[1] = tested on: Glucose dehydrogenase Mut. 2; assay: Enzymatic activity of glucose dehydrogenase mutant 2 in solution after storage; assay type: biochemical; settings: for stabilizing effect in solution: 1-4% (w/v) stabilizer in solution, storage at 4, 35 or 45° C.; for Enzymatic Activity: in solution
Experimental: Aliquots of a solution including a glucose dehydrogenase mutant 2 as disclosed in WO Patent Application Publication No. 2011/020856 was combined with different amounts of ectoine or hydroxyectoine as indicated below in Table 4.
The aliquots were stored under different storage conditions (8 days, 4° C.; 8 days 35° C., 4 days 4° C. followed by 4 days 45° C.), and the enzymatic activity was determined after the storage.

[2] = tested on: glucose dehydrogenase and diaphorase; assay: Blood glucose measurement with stored test elements as indicator for enzymatic activity; assay type: biochemical, B. subtilis; settings: 1 g/100 g composition; stored 63 days at 4, 24, 35 and 45° C.; normalized to 4° C.
Experimental: Test elements were stored in plastic vials in the presence of a drying agent for 63 days at 4° C. (KS), 24° C. (RT), 35° C. (DT) and 45° C. (HT). Test elements were used to determine blood glucose levels in a plurality of venous blood samples. The samples were measured with a reference method (Hitachi) in parallel. Results were normalized with respect to the KS stored test elements.

GDH from B. subtilis = GDH from B. subtilis (Bacillus subtilis, UniProt P12310); assay: Enzymatic activity in eluted test elements after dry storage (GDH); assay type: biochemical; settings: concentrations larger than 0.3 g/100 g coating composition; test elements stored dry 6 weeks at 45° C.
Experimental: (§1) Four different reaction films for determining glucose levels were generated and coated on a foil essentially as described in EP Patent No. 0 821 234. The formulation of the first coat/film layer composition is shown below in Table 1.
(§2) The pH was adjusted to 6.8, and the composition was coated as a first film (about 120 μm) on a polycarbonate foil (125 μm). The coated composition was subsequently dried at 50° C.
(§3) The pH was adjusted to 6.8, and the composition was coated as a second film (about 25 μm) onto the first film coated on the foil. The coated composition was subsequently dried at 50° C. Test strips for glucose determination were generated as described in EP Patent No. 0 821 234.
(§4) Test elements were stored in plastic vials in the presence of a drying agent for 6 weeks at 45° C. In a subsequent step, the test field of a test element was eluted by ultra-sonication using elution buffer. Enzymatic activity was determined in the supernatant.

glucose oxidase = glucose oxidase (Aspergillus niger, UniProt P13006); settings: test elements for electrochemically determining glucose; WO 2007/097653, Loose (2006); cited from earlier work
[3] = tested on: diaphorase from B. subtilis; assay: Enzymatic activity in eluted test elements after dry storage (diaphorase); assay type: biochemical; settings: test elements stored dry 6 weeks at 45° C.
Experimental: as §1, §2, §3, §4

Gluc-DOR 31 mutant = assay: Enzymatic activity in test elements including Gluc-DOR 31 mutant; assay type: biochemical; settings: dry test element; after 3 weeks at 45° C.
Experimental: (§5) A test element with Gluc-DOR and a mutant thereof (Gluc-DOR 31) was generated as described above in Example 1. The test element was analyzed as described above in Example 2. The determination of the enzymatic activity was carried out using nitrosoaniline as described in EP Patent No. 0 620 283.

[4] = tested on: glucose dehydrogenase and diaphorase; assay: Enzymatic activity in test elements with different buffers; assay type: biochemical, B. subtilis; settings: 2 g ectoine per 100 g first coating film; phosphate-buffer pH 6.8 or HEPES pH 7.1; 45 days, 45° C. to 4° C.
Source text: Test elements were stored and treated essentially as described in Example 3. Different buffers, namely a phosphate-buffer pH 6.8, without stabilizer, a phosphate-buffer pH 6.8, 2 g ectoine per 100 g first coating film, a HEPES buffer pH 7.1, without stabilizer, and a HEPES buffer pH 7.1, 2 g ectoine per 100 g first coating film, were used in the coating compositions as indicated in FIG. 4.

[5] = biological target: Gluc-DOR (a PQQ-dependent GDH) (Acinetobacter calcoaceticus, UniProt P13650); assay: Enzymatic activity in test elements including Gluc-DOR; assay type: biochemical; settings: dry test element; after 3 weeks at 45° C.
Experimental: as §5

[6] = stabilizer about 1%, 4 days at 4° C., 4 days at 45° C.
[7] = stabilizer about 1%, 8 days at 4° C.
[8] = stabilizer about 1%, 8 days at 35° C.
[9] = stabilizer about 2%, 4 days at 4° C., 4 days at 45° C.
[10] = stabilizer about 2%, 8 days at 4° C.
[11] = stabilizer about 2%, 8 days at 35° C.
[12] = stabilizer about 4%, 4 days at 4° C., 4 days at 45° C.
[13] = stabilizer about 4%, 8 days at 4° C.
[14] = stabilizer about 4%, 8 days at 35° C.

Sequence of GDH from B. subtilis (P12310 whole entry): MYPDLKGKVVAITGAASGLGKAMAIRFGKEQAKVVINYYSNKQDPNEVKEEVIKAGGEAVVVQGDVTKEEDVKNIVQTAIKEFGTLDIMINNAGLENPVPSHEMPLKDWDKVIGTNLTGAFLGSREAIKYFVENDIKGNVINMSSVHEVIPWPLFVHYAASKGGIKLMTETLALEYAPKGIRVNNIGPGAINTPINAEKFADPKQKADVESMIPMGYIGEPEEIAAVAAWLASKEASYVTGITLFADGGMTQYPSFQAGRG
Sequence of glucose oxidase (P13006 17-605, species assumed): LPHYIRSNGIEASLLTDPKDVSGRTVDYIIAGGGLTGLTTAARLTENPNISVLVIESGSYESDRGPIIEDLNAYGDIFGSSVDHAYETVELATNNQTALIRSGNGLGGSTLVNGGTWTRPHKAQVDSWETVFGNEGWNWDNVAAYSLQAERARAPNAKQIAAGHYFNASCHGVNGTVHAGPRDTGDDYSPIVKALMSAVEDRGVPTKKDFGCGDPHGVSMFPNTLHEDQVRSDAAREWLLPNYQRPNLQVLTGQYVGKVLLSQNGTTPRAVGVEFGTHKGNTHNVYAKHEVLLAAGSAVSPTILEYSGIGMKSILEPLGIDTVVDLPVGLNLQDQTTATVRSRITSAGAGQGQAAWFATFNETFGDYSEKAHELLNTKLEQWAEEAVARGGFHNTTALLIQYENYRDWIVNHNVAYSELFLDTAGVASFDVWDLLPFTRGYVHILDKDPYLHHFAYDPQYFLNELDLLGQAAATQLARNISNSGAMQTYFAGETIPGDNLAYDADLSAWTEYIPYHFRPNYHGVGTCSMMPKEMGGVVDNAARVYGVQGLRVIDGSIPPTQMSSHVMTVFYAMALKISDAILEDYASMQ
Sequence of Gluc-DOR (a PQQ-dependent GDH) (P13650 25-478): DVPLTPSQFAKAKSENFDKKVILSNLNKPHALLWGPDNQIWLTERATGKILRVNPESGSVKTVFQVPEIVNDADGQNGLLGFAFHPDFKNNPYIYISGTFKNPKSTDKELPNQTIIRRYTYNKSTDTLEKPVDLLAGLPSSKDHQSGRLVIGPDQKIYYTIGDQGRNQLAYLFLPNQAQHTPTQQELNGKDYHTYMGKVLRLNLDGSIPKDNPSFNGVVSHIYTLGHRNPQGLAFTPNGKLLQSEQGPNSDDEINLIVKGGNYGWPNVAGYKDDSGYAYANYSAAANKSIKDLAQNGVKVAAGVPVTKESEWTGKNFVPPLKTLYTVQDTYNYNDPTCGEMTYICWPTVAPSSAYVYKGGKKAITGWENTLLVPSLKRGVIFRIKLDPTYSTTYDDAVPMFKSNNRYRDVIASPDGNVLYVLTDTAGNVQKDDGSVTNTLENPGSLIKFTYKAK

SMILES	prevention of protein aggregation (lactate dehydrogenase)	stabilizing effect in solution [1]	Enzymatic Activity [1, 6] [kU/g]	Enzymatic Activity [1, 7] [kU/g]	Enzymatic Activity [1, 8] [kU/g]	Enzymatic Activity [1, 9] [kU/g]	Enzymatic Activity [1, 10] [kU/g]	Enzymatic Activity [1, 11] [kU/g]	Enzymatic Activity [1, 12] [kU/g]	Enzymatic Activity [1, 13] [kU/g]	Enzymatic Activity [1, 14] [kU/g]	preservation of enzymatic activities (measured glucose level) [2]	stabilizing effect (activity versus test elements without stabilizer) (GDH from B. subtilis)	stabilization of glucose oxidase (glucose oxidase)	stabilization of diaphorase [3]	stabilizing effect on Gluc-DOR 31 mutant (Gluc-DOR 31 mutant)	stabilizing activity with different buffers [4]	stabilizing effect on Gluc-DOR [5]
CC1=NC[C@H](O)[C@@H](C(=O)O)N1 [hydroxyectoine]	incapable of preventing protein aggregation	No stabilizing effect	52	208	122	60	221	141	56	207	131	act as stabilizers	same effect	Stabilization	stabilized			
CC1=NCC[C@@H](C(=O)O)N1 [ectoine, (S)-2-methyl-3,4,5,6-tetrahydropyrimidine-4-carboxylic acid]		No stabilizing effect; also recorded: not observed	60	222	144	59	222	149	57	207	137	act as stabilizers	more than 10%	Stabilization	stabilized	stabilizing effect	observed independent of the buffer system	stabilizing effect
